# Laboratory results from patent publication US20100330029A1, “Cancer Treatments with Radiation and Immunocytokines” (Merck Patent GmbH, priority 2008, published 2010).
# Assays:
# B16 melanoma = assay: tumor growth assay, B16 model; format: in vivo, mice; settings: Experiment B16-1; 10 Gy d0 followed by i.v. EMD521873 days 3, 4, 5
# Method: B16 cells, a murine melanoma cell line, were maintained in RPMI 1640, supplemented with 10% heat inactivated fetal bovine serum, L-glutamine, sodium pyruvate, non-essential amino acids, penicillin/streptomycin (Life Technologies, Inc.) at 37° C. and 7% CO2. B16 cells were implanted in female C57BL/6 mice.
# For the tumor growth assay, cells growing exponentially in culture were injected as a single cell suspension in 100 μl of PBS intramuscularly into the upper legs of the mice. In experiments using a dual tumor model, cells were also implanted in the flanks of the mice. After tumors had become established, treatment was initiated (day 0). In Experiment LLC-7, tumors were implanted in the flank until established. Mice were treated on days 0 to 9, then, on day 12, tumors were excised using survival surgery. Thereafter, animal survival was monitored. […] Mice were treated on days 0 to 6 and day 17, and tumor size was measured twice weekly for the duration of the study.
# Tumors were measured with calipers in three dimensions for the duration of the experiment. Tumor volumes were calculated using the equation: […]
# (§1) In addition, there was a moderate, but significant increase in certain immune response markers in the tumor as measured by immune marker gene expression profiles with CD25, TNFA, TYROBP, ICOS and CD45 being modulated >4-fold compared to either therapy alone.
# [1] = test system: immune response markers in the tumor; assay: immune marker gene expression profiles in B16 tumors; format: in vivo, mice; settings: 10 Gy d0 followed by EMD521873, compared to either therapy alone
# Method: (§2) Gene profiling of tumors was analyzed using excised tumor tissues placed in RNAlater® RNA stabilizing reagent upon harvest. Total RNA was prepared with an RNeasy® kit (Qiagen) and cDNA was prepared with the Superscript® III kit for qPCR (Life Technologies, Inc.). qPCR reactions were performed on an ABI7500 instrument in a standardized fashion and relative changes in gene expression were analyzed using the ddCt method (efficiency factor 95%). Housekeeping genes used for comparison included ACTB, B2M and HPRT1.
# as §1
# [2] = test system: immune markers in LLC tumors; assay: immune gene expression profiling of LLC tumors; format: in vivo, mice; settings: for CD3 gene expression increase / CD8 gene expression increase / CISH gene expression increase / CXCL9 gene expression increase / IFNg gene expression increase: LLC-6; for CD3 gene expression increase: EMD521873+chemoradiation vs EMD521873 or chemoradiation alone; for CD8 gene expression increase / CISH gene expression increase / CXCL9 gene expression increase / IFNg gene expression increase: EMD521873+chemoradiation vs either alone
# Method: as §2
# LLC tumors = assay: survival after surgical removal of treated LLC tumor; format: in vivo, mice; settings: Experiment LLC-7; EMD521873 5 mg/kg d7, 8, 9 plus chemoradiation; tumor removed day 12 or 13
# Method: For the tumor growth assay, cells growing exponentially in culture were injected as a single cell suspension in 100 μl of PBS intramuscularly into the upper legs of the mice. In experiments using a dual tumor model, cells were also implanted in the flanks of the mice. After tumors had become established, treatment was initiated (day 0). In Experiment LLC-7, tumors were implanted in the flank until established. Mice were treated on days 0 to 9, then, on day 12, tumors were excised using survival surgery. Thereafter, animal survival was monitored. In Experiment LLC-14, tumors were implanted subcutaneously in the flank until established. Mice were treated on days 0 to 6 and day 17, and tumor size was measured twice weekly for the duration of the study.
# In another experiment the ability of local irradiation followed by immunocytokine administration to reduce tumor recurrence following surgery was tested (Experiment LLC-7). Mice with subcutaneous LLC tumors were treated with either chemoradiation (cisplatin 4 mg/kg, d0 plus 3.6 Gy/d, d0-4 of fractionated radiation given to the tumor) or EMD521873 (5 mg/kg, d7, 8, 9) plus chemoradiation. The remaining tumor was then surgically removed on day 12 or 13 and survival was monitored. Ten out of 12 mice treated with the combination achieved long term survival compared to 6 out of 10 treated with radiation alone.
# malignant melanoma = assay: study in cutaneous/subcutaneous malignant melanoma; format: in vivo; settings: human melanoma; EMD521873 0.3 mg/kg and local radiation vs EMD521873 only
# Method: A study is performed to investigate the responses of cutaneous metastases in patients with stage IIIb-IV cutaneous/subcutaneous malignant melanoma to EMD521873 at the tumor site and in blood to EMD521873 in combination with local irradiation (25 Gy). The first treatment cycle with EMD521873 starts on day 1. Subsequent cycles are administered at 3-week intervals. Prior to the first dose of EMD521873, subjects are treated with two courses of local radiation (25 Gy) administered in fractions of 5 Gy on 5 consecutive days ([…]; and days −7 to −3) to different metastases.
# For each patient, at least two cutaneous or subcutaneous lesions eligible for biopsy are selected for potential radiation (lesion A1 and lesion A2) and, if present, a third lesion (lesion A3) is also selected. A biopsy of a cutaneous/subcutaneous lesion (lesion A1) and blood sampling are performed at baseline (D-28). After 7 days, allowing for the necessary healing of the biopsy area, lesion A1 is irradiated (5×5 Gy) over 5 consecutive days starting on day −21 (D−21 to D−17). On day −7 (D−7) blood samples are withdrawn and a biopsy of the irradiated lesion A1 is taken. This tumor sample serves as an intraindividual control to assess the effect of radiation alone. On day −14, the pre-selected lesions A2 and A3 are also biopsied and blood drawn. […]
# [3] = LLC-13, radiation in the 2 weeks prior to EMD521873
# [4] = LLC-13, radiation in the first week followed by EMD521873
substance,measurement,setting,value
dI-NHS76γ2(h)(FN>AQ)-ala-IL2(D20T) [EMD521873],anti-tumor activity,B16 melanoma,greater anti-tumor activity compared to either treatment alone
same,"CD25, TNFA, TYROBP, ICOS and CD45 gene expression modulated in the tumor",[1],> 4 fold
same,"gene expression profiling, panel of immune markers","[2]; Experiments LLC-1, LLC-2, radiation plus EMD521873 compared to either alone","increases in markers for T cell, T cell activation, lymphocyte trafficking, and Th1 response"
same,CD3 gene expression increase,[2]; flank tumor (non-irradiated),8 fold
same,CD8 gene expression increase,[2]; flank tumor,3.5 fold
same,CISH gene expression increase,[2]; flank tumor,3.2 fold
same,CXCL9 gene expression increase,[2]; flank tumor,14 fold
same,IFNg gene expression increase,[2]; flank tumor,7 fold
same,CD3 gene expression increase,[2]; leg tumor (irradiated),> 20 fold
same,CD8 gene expression increase,[2]; leg tumor,10 fold
same,CISH gene expression increase,[2]; leg tumor,5.8 fold
same,CXCL9 gene expression increase,[2]; leg tumor,10.5 fold
same,IFNg gene expression increase,[2]; leg tumor,14 fold
same,"12 immune expression markers (GZMB, PDCD1, NKG7, NKG2D, CD3G, ITGAL, CD122, CD8A, FASL, CTLA4, INOS, CD25) upregulated","[2]; LLC-8, LLC-9, EMD521873 plus chemoradiation relative to the maximal level achieved in the monotherapies",3 to 6 times
same,immune gene response profile,"[2]; LLC-11, EMD521873 followed by radiation, compared to EMD521873 or either radiation regimen alone",not significantly affected
same,immune response in the tumor (immune gene profiling),"[2]; LLC-12, EMD521873 during the 2nd week of a 3 week course of radiation vs 1 week or 2 week course",blunted
same,CD3 fold-induction compared to untreated control,[2]; [3],~14 fold
same,CD8 fold-induction compared to untreated control,[2]; [3],~6 fold
same,CD25 fold-induction compared to untreated control,[2]; [3],~22 fold
same,IFNγ fold-induction compared to untreated control,[2]; [3],~10 fold
same,granzyme fold-induction compared to untreated control,[2]; [3],~2 fold
same,perforin fold-induction compared to untreated control,[2]; [3],~5 fold
same,immune response gene profile in the tumor,"[2]; LLC-13, radiation in the 3 weeks prior to EMD521873",nearly complete abrogation of the immune response
same,CD3 fold-induction compared to untreated control,[2]; [4],~50 fold
same,CD8 fold-induction compared to untreated control,[2]; [4],~19 fold
same,CD25 fold-induction compared to untreated control,[2]; [4],~45 fold
same,IFNγ fold-induction compared to untreated control,[2]; [4],~22 fold
same,granzyme fold-induction compared to untreated control,[2]; [4],~22 fold
same,perforin fold-induction compared to untreated control,[2]; [4],~8 fold
same,long term survival after surgery,LLC tumors,Ten out of 12
same,tumor progression (PET or CT scan),malignant melanoma,reduced tumor progression
